The results in this text go back to patent US10604502B2, “Substituted 5-cyanoindole compounds and uses thereof” (Novartis AG, priority 2017, dated 2020).

For this assay, the system named is CD86 mRNA expression in MV4-11 cells. The assay is described as follows: CD86 mRNA expression assay (qPCR assay) in MV4-11 cells. The format is cell-based. As to conditions: Homo sapiens, 24 hours treatment, CD86 mRNA normalized against ACTB, read-out: CD86 induction qPCR in MV4-11 AC50. The method, then:
MV4-11 cells were treated with representative compound of the present invention and RNA was extracted, followed by reverse transcription and Real-Time PCR. […] The data were used for dose response curve fitting in GraphPad Prism to calculate the AC50 of each compound. AC50 of CD86 mRNA expression activation after treatment of representative compounds of present invention will reflect the inhibition of LSD1 activity.

The structures appear in SMILES notation.

Take `Cc1cc2c(cc1C#N)c(-c1cncc(N)c1F)cn2[C@H]1CC[C@H](O)CC1` [Example 5, 3-(5-amino-4-fluoropyridin-3-yl)-1-((1R,4R)-4-hydroxycyclohexyl)-6-methyl-1H-indole-5-carbonitrile]: the AC50 was determined as 3620 nM.

For `Cc1cc2c(cc1C#N)c(-c1cncc(N)c1Cl)cn2-c1ccc(=O)n(C)c1` [Example 84, 3-(5-amino-4-chloropyridin-3-yl)-6-methyl-1-(1-methyl-6-oxo-1,6-dihydropyridin-3-yl)-1H-indole-5-carbonitrile], the AC50 stood at 1490 nM.

As for `N#Cc1cc2c(-c3cncc(N)c3Cl)cn([C@H]3CC[C@H](O)CC3)c2cc1Cl` [Example 7, 3-(5-amino-4-chloropyridin-3-yl)-6-chloro-1-((1R,4R)-4-hydroxycyclohexyl)-1H-indole-5-carbonitrile], the AC50 stood at 569 nM.

As to `Cc1cc2c(cc1C#N)c(-c1cncc(N)c1Cl)cn2[C@H]1CC[C@H](S(C)(=O)=O)CC1` [Example 47, 3-(5-amino-4-chloropyridin-3-yl)-6-methyl-1-((1R,4R)-4-(methylsulfonyl)cyclohexyl)-1H-indole-5-carbonitrile], the AC50 amounted to 202 nM.

On to `Cc1cc2c(cc1C#N)c(-c1cncc(N)c1Cl)cn2-c1ccc(S(C)(=O)=O)cc1` [Example 77, 3-(5-amino-4-chloropyridin-3-yl)-6-methyl-1-(4-(methylsulfonyl)phenyl)-1H-indole-5-carbonitrile], for which the AC50 amounted to 7 nM.

For `Cc1cc2c(cc1C#N)c(-c1cncc(N)c1Cl)cn2C1CCC(C(N)=O)C1` (stereo not shown) [Example 68, 3(3-(5-amino-4-chloropyridin-3-yl)-5-cyano-6-methyl-1H-indol-1-yl)cyclopentane-1-carboxamide], the half-maximal activity concentration (AC50) worked out at 464 nM.

For the molecule `Cc1cc2c(cc1C#N)c(-c1cncc(N)c1Cl)cn2[C@H]1CC[C@H](O)CC1` [Example 1, 3-(5-amino-4-chloropyridin-3-yl)-1-((1R,4R)-4-hydroxycyclohexyl)-6-methyl-1H-indole-5-carbonitrile], the concentration at half-maximal activity (AC50) was found to be 98 nM.

One may read the AC50 as the concentration at which the activity in the assay is half-maximal.
